Experimental findings from patent US12398111B2, “Triazine compounds and pharmaceutical use thereof” (Japan Tobacco Inc., priority 2014, dated 2025) are described below.

Structures are written as SMILES.

For one test, the target named is T1, human mPGES-1 (Homo sapiens, UniProt O14684).
T1 construct: made in house; host or cells: FreeStyle CHO-S cells (Chinese hamster ovary), transient transfection with pcDNA3.1(+)/human mPGES-1; microsome fraction used
T1 sequence (O14684 1-152): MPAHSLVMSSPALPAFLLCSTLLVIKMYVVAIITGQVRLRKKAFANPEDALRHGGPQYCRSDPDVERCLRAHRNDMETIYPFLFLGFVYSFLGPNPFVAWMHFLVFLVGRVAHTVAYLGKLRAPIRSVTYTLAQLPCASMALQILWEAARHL
The test is described as follows: Evaluation of human mPGES-1 enzyme inhibitory activity (PGE2 measured by HTRF, microsome fraction of CHO-S cells expressing human mPGES-1). It is filed as biochemical. As to conditions: IC50 value; microsome fraction of CHO-S cells expressing human mPGES-1, PGE2 by HTRF. In a few lines:
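Enzyme source: microsomes from CHO-S cells transfected with human mPGES-1 and cultured 48 hr, diluted to 5 μg/mL protein in reduced GSH (12.5 mmol/L KPB solution). Test articles were in 0.1 mol/L potassium phosphate pH 7.4, final DMSO 2% (v/v). PGE2 formed was quantified by HTRF.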
(TR-FRET usually uses a lanthanide donor and a delayed reading to cut background.)
Usually IC50 stands for the midpoint of a concentration-inhibition curve. A low value points to greater potency. Regarding `C[C@H](Oc1cccc(Cl)c1-c1nc(O)nc(-c2ccc(OCC(C)(C)C)cc2)n1)c1ccccc1` [Example 2-65], the IC50 stood at 151 nM. This counts as sub-micromolar. On the same count and under the same terms, for `CC(C)c1ccc(-c2nc(O)nc(-c3cc(CNC(=O)C(C)(C)C)ccc3Cl)n2)cc1` [Example 1-46] the value was 0.7 nM; for `CCC(CC)(CO)C(=O)NCc1ccc(Cl)c(-c2nc(O)nc(-c3ccccc3)n2)c1` [Example 1-250], 12 nM; for `COc1cccc(Cl)c1-c1nc(O)nc(-c2ccc(OCc3ccccc3)cc2)n1` [Example 2-35], 17 nM. Still for that read-out and setting: for `CCCCOc1cccc(Cl)c1-c1nc(O)nc(-c2ccc(C(F)(F)F)cc2)n1` [Example 2-31] the value was 31 nM; for `CC(C)Oc1ccc(-c2nc(O)nc(-c3cc(CNC(=O)C(C)(C)C)ccc3Cl)n2)cc1` [Example 1-82], 0.8 nM.

`CCCc1cccc(-c2nc(O)nc(-c3cc(CNC(=O)[C@@](C)(OC)C(F)(F)F)ccc3Cl)n2)c1` [Example 1-104] gave an IC50 of 1.5 nM.

`CC(C)COCc1ccc(Cl)c(-c2nc(O)nc(-c3ccc(OCC(C)(C)C)cc3)n2)c1` [Example 1-204] had a 50% inhibitory concentration (IC50) of 34 nM.

On to `Cc1cc(-c2nc(O)nc(-c3cc(CNC(=O)C(C)(C)C(F)(F)F)ccc3Cl)n2)ccc1F` [Example 1-186], for which the IC50 was found to be 1.4 nM. On to `O=C1N(Cc2ccc(Cl)c(-c3nc(O)nc(-c4ccccc4)n3)c2)CC12CCCCC2` [Example 1-248], for which inhibition was half-maximal at 16 nM (IC50). This IC50 lies about 11-fold higher than the previous one. `CSc1ccc(-c2nc(O)nc(-c3cc(CNC(=O)C(C)(C)C(F)(F)F)ccc3Cl)n2)cc1` [Example 1-115] registered a concentration for half-maximal inhibition (IC50) of 0.6 nM. Still for that read-out and setting: for `CO[C@](C)(C(=O)NCc1ccc(Cl)c(-c2nc(O)nc(-c3ccc(F)c(C)c3)n2)c1)C(F)(F)F` [Example 1-106] the value was 0.7 nM. Same read-out and setting: the value for `CC(C)(C(=O)NCc1ccc(Cl)c(-c2nc(O)nc(-c3cccc(C(F)(F)F)c3)n2)c1)C(F)(F)F` [Example 1-59] was 0.6 nM; that for `Cc1ccccc1COc1cccc(Cl)c1-c1nc(O)nc(-c2ccc(C(F)(F)F)cc2)n1` [Example 2-53] was 11 nM; that for `COc1ccc(Cl)c(-c2nc(O)nc(-c3ccc(C(F)(F)F)cc3)n2)c1` [Example 1-6] was 163 nM. As to `CC1(COc2ccc(-c3nc(O)nc(-c4cc(CNC(=O)C(C)(C)C(F)(F)F)ccc4Cl)n3)cc2)CCC1` [Example 1-143], the IC50 was determined as 1 nM. On the same count and under the same terms, the value for `Cc1ccc(C)c(-c2nc(O)nc(-c3ccc(C(F)(F)F)cc3)n2)c1` [Example 1-2] was 138 nM; that for `CN(Cc1ccc(Cl)c(-c2nc(O)nc(-c3ccc(OCC(C)(C)C)cc3)n2)c1)S(=O)(=O)C(C)(C)C` [Example 1-223] was 7 nM; that for `Cc1cccc(C)c1-c1nc(O)nc(-c2ccc(O[C@@H](C)c3ccccc3)cc2)n1` [Example 2-43] was 570 nM. Still for that read-out and setting: for `Oc1nc(-c2ccc(C#CC3CCCCC3)cc2)nc(-c2c(Cl)cccc2OCc2ccccn2)n1` [Example 2-92] the value was 4.4 nM.

In the case of `Cc1cccc(C)c1-c1nc(O)nc(-c2ccc(C(C)C)cc2)n1` [Example 2-8], it took 1900 nM to reach half-maximal inhibition (IC50). This IC50 is about 430-fold higher than that of the molecule before. The same measure, in the same setting: for `Cc1ccc(CNC(=O)C(C)(C)C)cc1-c1nc(O)nc(-c2ccc(C(F)(F)F)cc2)n1` [Example 1-48] the value was 0.9 nM; for `CCCC(=O)NCc1ccc(Cl)c(-c2nc(O)nc(-c3ccc(C(F)(F)F)cc3)n2)c1` [Example 1-36], 0.7 nM. Still for that read-out and setting: for `CO[C@](C)(C(=O)NC(C)c1ccc(Cl)c(-c2nc(O)nc(-c3ccc(F)c(C)c3)n2)c1)C(F)(F)F` (single isomer, unassigned) [Example 1-189] the value was 1100 nM; for `CCc1cc(-c2nc(O)nc(-c3c(C)cccc3C)n2)ccc1Cl` [Example 2-54], 170 nM; for `CN(Cc1ccc(Cl)c(-c2nc(O)nc(-c3ccccc3)n2)c1)C(=O)c1ccccc1` [Example 1-230], 750 nM. Same read-out and setting: the value for `Cc1cccc(-c2nc(O)nc(-c3c(C)cccc3C)n2)c1` [Example 2-13] was 23100 nM; that for `CCC(CC)C(=O)N(C)Cc1ccc(Cl)c(-c2nc(O)nc(-c3ccccc3)n2)c1` [Example 1-233] was 848 nM. For `Oc1nc(-c2ccc(OCC3CCC3)cc2)nc(-c2c(Cl)cccc2OCc2ccccn2)n1` [Example 2-75], the IC50 was 3.7 nM. The molecule `CC(C)(C)COc1ccc(-c2nc(O)nc(-c3cc(CNC(=O)C(C)(C)C(F)(F)F)ccc3Cl)n2)cc1` [Example 1-86, N-(4-chloro-3-{4-[4-(2,2-dimethylpropoxy)phenyl]-6-hydroxy-1,3,5-triazin-2-yl}benzyl)-3,3,3-trifluoro-2,2-dimethylpropionamide] displayed an IC50 of 5.8 nM. For `CN(Cc1ccc(Cl)c(-c2nc(O)nc(-c3ccccc3)n2)c1)C(=O)C1Cc2ccccc2C1` [Example 1-246], half-maximal inhibition (IC50) was put at 307 nM. Consider `CO[C@@](C)(C(=O)N(C)Cc1ccc(Cl)c(-c2nc(O)nc(-c3ccccc3)n2)c1)C(F)(F)F` [Example 1-243], for which the IC50 turned out to be 120 nM. The same measure, in the same setting: for `O=C(NCc1ccc(Cl)c(-c2nc(O)nc(-c3ccccc3)n2)c1)C1(CO)CCCCC1` [Example 1-247] the value was 11 nM. For `CCc1cc(-c2nc(O)nc(-c3cc(CNC(=O)C4(C(F)(F)F)CC4)ccc3Cl)n2)ccc1F` [Example 1-152], the IC50 came to 0.4 nM. Molecule `Oc1nc(-c2ccc(OCC3CC3)nc2)nc(-c2c(Cl)cccc2OCc2ccccc2)n1` [Example 2-93] gave an IC50 of 38 nM.

The molecule `CC(C)Oc1cccc(Cl)c1-c1nc(O)nc(-c2ccc(C(F)(F)F)cc2)n1` [Example 2-21] had an IC50 of 341 nM. Still for that read-out and setting: the value for `O=C(NCc1ccc(Cl)c(-c2nc(O)nc(-c3ccccc3)n2)c1)C1(C(F)(F)F)CCC1` [Example 1-70] was 0.7 nM. For `CCO[C@@](C)(C(=O)NCc1ccc(Cl)c(-c2nc(O)nc(-c3ccccc3)n2)c1)C(F)(F)F` [Example 1-97], 9.1 nM corresponded to half-maximal inhibition (IC50). Same read-out and setting: for `CC(C)(C(=O)NCc1ccc(Cl)c(-c2nc(O)nc(-c3ccc(C#CC4CCCCC4)cc3)n2)c1)C(F)(F)F` [Example 1-191] the value was 15 nM.

Molecule `Oc1nc(-c2ccc(C(F)(F)F)cc2)nc(-c2c(O)cccc2Cl)n1` [Example 2-16] gave an IC50 of 412 nM. Against the preceding molecule, the IC50 is about 27-fold higher. The molecule `Oc1nc(-c2ccc(C#CC3CCCCC3)cc2)nc(-c2c(Cl)cccc2OCc2ccc(C(F)(F)F)cn2)n1` [Example 2-83] gave an IC50 of 51 nM.

In the case of `CCCOc1cccc(Cl)c1-c1nc(O)nc(-c2ccc(C(F)(F)F)cc2)n1` [Example 2-20], the midpoint of inhibition, the IC50, lay at 52 nM. The same measure, in the same setting: for `Cc1cc(Cl)c(-c2nc(O)nc(-c3ccc(OCC4CC4)cc3)n2)cc1C(=O)O` [Example 3-19] the value was 24600 nM. Still for that read-out and setting: for `Cc1cc(-c2nc(O)nc(-c3cc(CNC(=O)C4(C(F)(F)F)CCC4)ccc3Cl)n2)ccc1F` [Example 1-125] the value was 0.8 nM; for `CC(C)(C(=O)NCc1ccc(Cl)c(-c2nc(O)nc(-c3ccc(OCC4CC4)cc3)n2)c1)C(F)(F)F` [Example 1-133], 0.5 nM. For the molecule `O=C(NCc1ccc(Cl)c(-c2nc(O)nc(-c3cccc(C4CC4)c3)n2)c1)C1(C(F)(F)F)CC1` [Example 1-160], half-maximal inhibition (IC50) was put at 1.4 nM.

In turn, `CCCOc1ccc(-c2nc(O)nc(-c3cc(CN4CC(C)(C)C4=O)ccc3Cl)n2)cc1` [Example 1-158] yielded an IC50 of 12 nM. This IC50 lies about 8.6-fold higher than the previous one.

On to `CC(C)(C(=O)NCc1ccc(Cl)c(-c2nc(O)nc(-c3cccc(OC(F)(F)F)c3)n2)c1)C(F)(F)F` [Example 1-77], for which the concentration for half-maximal inhibition (IC50) was found to be 0.9 nM. Against the preceding molecule, the IC50 is about 13-fold lower. The same measure, in the same setting: for `COc1ccccc1C#Cc1ccc(-c2nc(O)nc(-c3c(OCc4cccc(C)n4)cccc3C(F)(F)F)n2)cc1` [Example 2-109] the value was 2.8 nM. Still for that read-out and setting: for `CCO[C@](C)(C(=O)NCc1ccc(Cl)c(-c2nc(O)nc(-c3ccccc3)n2)c1)C(F)(F)F` [Example 1-96] the value was 81 nM.

As to `CC(C)S(=O)(=O)NCc1ccc(Cl)c(-c2nc(O)nc(-c3ccc(C(F)(F)F)cc3)n2)c1` [Example 1-33], the 50% inhibitory concentration (IC50) was determined as 0.8 nM.

For the molecule `COC1CCC2(CC1)CN(Cc1ccc(Cl)c(-c3nc(O)nc(-c4ccccc4)n3)c1)C2=O` (single isomer, unassigned) [Example 1-267], the 50% inhibitory concentration (IC50) amounted to 150 nM. The molecule `CC(C)COc1cccc(-c2nc(O)nc(-c3cc(CNC(=O)C(C)(C)C(F)(F)F)ccc3Cl)n2)c1` [Example 1-88] yielded an IC50 of 1.2 nM.

For the molecule `CN(C)C(=O)Cc1ccc(Cl)c(-c2nc(O)nc(-c3ccc(C(F)(F)F)cc3)n2)c1` [Example 1-40], the IC50 was determined as 2230 nM.

`COC(C)(C)C(=O)NCc1ccc(Cl)c(-c2nc(O)nc(-c3ccc(C(F)(F)F)cc3)n2)c1` [Example 1-56] had an IC50 of 0.6 nM. The same measure, in the same setting: for `Cc1cccc(C)c1-c1nc(O)nc(-c2cccc(C(F)(F)F)c2)n1` [Example 2-28] the value was 3700 nM; for `CC(=O)OCc1ccc(Cl)c(-c2nc(O)nc(-c3ccc(C(F)(F)F)cc3)n2)c1` [Example 1-25], 108 nM.

Molecule `Cc1cccc(C)c1-c1nc(O)nc(-c2ccc(F)cc2)n1` [Example 2-24] returned a half-maximal inhibitory concentration (IC50) of 2400 nM. The molecule `Oc1nc(-c2ccc(C#CC3CCCC3)cc2)nc(-c2c(Cl)cccc2OCc2ccccn2)n1` [Example 2-81] displayed a 50% inhibitory concentration (IC50) of 2.7 nM. On the same count and under the same terms, for `CO[C@](C)(C(=O)NC(C)c1ccc(Cl)c(-c2nc(O)nc(-c3ccc(OCC(C)(C)C)cc3)n2)c1)C(F)(F)F` (single isomer, unassigned) [Example 1-200] the value was 10 nM; for `CC(C)(C(=O)NCc1ccc(Cl)c(-c2nc(O)nc(-c3ccc(OCC4CCC4)cc3)n2)c1)C(F)(F)F` [Example 1-116], 2 nM.

The test is the same for the next values; noted with them: at 30 μM test article.
The inhibition is how much of the control response was suppressed. On to `Cc1cccc(C)c1-c1nc(O)nc(-c2cccc(O)c2)n1` [Example 2-30], for which at 30 µM the inhibition was 43%.
